From patent publication US9587220B2, “Method for inducing cardiac differentiation of pluripotent stem cell” (Kyoto University, priority 2012, dated 2017)

What was measured:
[1] = system: WNT target genes in IMR90-1 hiPSCs; assay: Microarray and qPCR gene expression of WNT target genes; assay type: cell-based, human; details: for expression levels of WNT target genes by qPCR: 12, 24 and 72 h after treatment
Experimental: IMR90-1 iPSCs were cultured in cardiac differentiation medium containing serum. On Day 3, cells were treated with 10 μM KY02111 or 0.1% DMSO for 0, 12, or 24 h. Non-treated cells (0 h), cells treated with KY02111 for 12 h (KY12hr) or 24 h (KY24hr), and cells treated with 0.1% DMSO for 12 h (DMSO12hr) or 24 h (DMSO24hr) were used for microarray analysis. Total RNA was prepared using the RNeasy Mini Kit (Qiagen), according to the manufacturer's instructions. Synthesis of cDNA, in vitro transcription and biotin labeling cRNA, and hybridization to the Human Gene 1.0 ST array (Affymetrix) were performed according to Affymetrix protocols. Hybridized arrays were scanned using an Affymetrix GeneChip Scanner. Data normalization and further analysis were performed with GeneSpring GX (Agilent Technologies). Proportions of treated cells expressing genes relative to control (KY02111/DMSO) were calculated for each time point. […] The microarray data have been submitted to the Gene Expression Omnibus (GEO) public database at NCBI (GEO accession number, GSE33622).
Total RNA was isolated with an RNeasy Mini Kit (QIAGEN). Genomic DNA was completely digested with DNase I (Invitrogen). Total RNA (0.5 μg) was subjected to cDNA synthesis using the SuperScript III Reverse Transcriptase (Invitrogen). qRT-PCR was performed in triplicate, using SYBER GREEN PCR Master Mix on a 7500 Real Time PCR System (Applied Biosystems). The cycling conditions were as follows: 10 min at 95° C.; 40 cycles, each consisting of 15 s at 95° C.; 1 min at 60° C. Total RNA from human adult heart tissue (BioChain) was used to evaluate the expression levels of cardiac marker genes for cardiomyocytes derived from hPSCs. All values were normalized with respect to GAPDH expression level and expressed relative to the corresponding values in human adult hearts (100%).

[2] = system: IMR90-1 hiPSCs; assay: Beating colonies of hiPSCs (IMR90-1) in serum-containing cardiac differentiation; assay type: cell-based, human; details: for proportions of beating colonies: hiPSCs; for proportions of beating colonies with BIO: with 5 μM BIO (GSK3β inhibitor)
Experimental: Confluent hESCs and hiPSCs were gently detached with CTK solution and transferred into Petri dishes (BD Biosciences) with Primate ES Cell Culture Medium (ReproCELL, Japan). Cells were held in suspension culture for 8-24 h to form aggregates. The sizes of hPSC aggregates (0.3-1 mm in diameter) are important for efficient differentiation. Following suspension culture, cell aggregates were attached to culture dishes (3-10×10^5 cells cm^−2) in cardiac differentiation medium: IMDM (Sigma), containing 20% FBS (Gibco), 1% MEM non-essential amino acid solution (Sigma), 1% Penicillin-Streptomycin (Gibco), 2 mM L-glutamine (Sigma), 0.001% 2-Mercaptoethanol (Gibco), and 0.005N NaOH, with 10 ng ml^−1 BMP4 (R&D Systems). The medium was changed to cardiac differentiation medium with 10 μM KY02111 and/or other WNT inhibitors added on Day 3 (hiPSC lines) or Day 4 (human or monkey ESC lines); XAV939 (Wako, Japan), IWP-2 (Santa Cruz Biotechnology), IWR-1 (Merck4Bioscience), IGFBP4 (R&D Systems), Dkk1 (R&D Systems) and the mixture of bFGF (R&D Systems), BMP4 (R&D Systems), VEGF (R&D Systems), DKK1 (R&D Systems), and Activin A (R&D Systems) (Non-patent literature 16). Medium was changed every 2-3 d. KY02111 and other WNT inhibitors were added until Day 9 for hiPSC lines and the monkey ESC line, or Day 14 for hESC lines. On Day 15, cardiac cell colonies on dishes were incubated with protease solution (0.1% collagenase type I, 0.25% trypsin, 1 U ml^−1 DNase I, 116 mM NaCl, 20 mM HEPES, 12.5 mM NaH2PO4, 5.6 mM glucose, 5.4 mM KCl, and 0.8 mM MgSO4, pH 7.35) for 0.5-2 h, until all cardiac colonies were detached from the bottom of the wells. The detached cardiac colonies were transferred into 15 ml tubes with fresh cardiac differentiation medium and precipitated by gravity, and the supernatant was removed by aspiration. The cardiac colonies were then transferred into Ultra-low culture dishes (Corning, 3261) or 6-well plates (Corning, YO-01835-24) in cardiac differentiation medium without both serum and NaOH. The floating cardiac colonies were maintained for more than 1 month, and the media were changed every 5 d. A differentiation method of mouse ESC (R1 line) was carried out as previously described^46, and KY02111 was added during Days 3-6. Beating colonies were counted on Day 9.

SMILES	expression levels of WNT target genes by qPCR [1]	proportions of beating colonies ([2]; FIG. 3d)	proportions of beating colonies with BIO ([2]; FIG. 3d)	number of genes changed >25% at both 12 and 24 h (microarray) ([1]; 10 μM, versus DMSO)	promotion of cardiac differentiation of hiPSCs compared with other WNT inhibitors ([2]; FIG. 3d)	proportion of beating colonies after subculture ([2]; floating culture of beating colonies, FIG. 6)	day on which beating colonies emerged ([2]; time course, FIG. 6)	day until which cardiac colonies continued beating ([2]; time course, FIG. 6)
Cc1ccc2nc(NC(=O)CSc3nc4c(c(=O)n3-c3ccccc3)SCC4)sc2c1 [IWP-2, reference compound]	suppressed	37%	completely inhibit	–	–	–	–	–
Oc1nc(-c2ccc(C(F)(F)F)cc2)nc2c1CSCC2 [XAV939, reference compound]	suppressed	7.5%	completely inhibit	–	–	–	–	–
COc1ccc(CCC(=O)Nc2nc3ccc(Cl)cc3s2)cc1OC [KY02111, 2-(3-(3,4-dimethoxyphenyl)propanamide)-6-chlorobenzothiazole]	suppressed	87%	did not cancel	26 genes	most effective	up to 90%	10 days	≥ 50 days
